# [ ]: non-standard residue; d: D form. Aib = CC(C)(N)C(=O)O
# System: HUVECs
# Assay: Endothelial cell tube formation on matrigel
# Assay type: cell-based, human
# Conditions: 10 nM, three experiments in duplicate
# Description: The formation of vascular-like structures was assessed on a matrigel basement membrane matrix preparation. HUVEC (4 × 10^4 cells/well) were suspended in 300 µl pre-warmed serum-free medium. Diluents or effectors were added to the cell suspension prior to seeding cells on polymerized growth factor-reduced matrigel (100 µl/well) (Becton Dickinson). Assays were carried out for 6 hr at 37 °C in humidified air with 5% CO2 as described. To quantify tube formation, five random areas/well at 100× magnification were imaged and the number of tubes formed by cord-like structures exceeding 100 μm in length, measured using Axiovision 4.4 software (Carl Zeiss), were counted. The experiments were performed three times in duplicate.
substance,measurement,setting,value
Ac-[dY][dR][Aib][dR]-NH2 (SMILES CC(=O)N[C@H](Cc1ccc(O)cc1)C(=O)N[C@H](CCCNC(=N)N)C(=O)NC(C)(C)C(=O)N[C@H](CCCNC(=N)N)C(N)=O) [RI-3],reduction of VEGF-dependent endothelial capillary-like structures,"EBM plus 40 ng/mL VEGF165, 6 hr on matrigel",75%
same,reduction of FBS-dependent endothelial capillary-like structures,"EBM plus 10% FBS, 6 hr on matrigel",61%
